For this test, the target named is T1, human CGT (ceramide galactosyltransferase), CHO/CGT lysate (Homo sapiens, UniProt Q16880).
T1 construct: Full-length human CGT cDNA was cloned into the BamH1/Xho1 site of pcDNA3.1 (+); expressed in transfected cells; host or cells: Chinese hamster ovary (CHO) cells; lysate prepared with M-PER
T1 sequence (Q16880 21-541): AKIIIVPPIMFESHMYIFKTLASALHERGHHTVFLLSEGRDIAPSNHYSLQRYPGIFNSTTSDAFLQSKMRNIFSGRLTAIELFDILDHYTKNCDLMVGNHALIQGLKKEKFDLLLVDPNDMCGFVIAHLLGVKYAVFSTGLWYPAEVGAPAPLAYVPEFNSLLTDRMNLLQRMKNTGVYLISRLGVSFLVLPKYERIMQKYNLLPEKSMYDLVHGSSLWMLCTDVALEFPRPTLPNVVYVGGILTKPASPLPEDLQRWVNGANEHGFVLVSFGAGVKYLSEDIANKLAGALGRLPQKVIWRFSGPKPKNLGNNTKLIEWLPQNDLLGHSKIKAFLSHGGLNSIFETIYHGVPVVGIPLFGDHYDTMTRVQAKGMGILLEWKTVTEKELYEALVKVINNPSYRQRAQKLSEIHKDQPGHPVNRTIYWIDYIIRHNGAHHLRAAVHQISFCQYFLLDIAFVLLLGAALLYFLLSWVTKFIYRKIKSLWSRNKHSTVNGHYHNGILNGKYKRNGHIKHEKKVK
In words: CGT enzyme assay, LC-MS/MS readout (Table 1 ranges without asterisk). Type of test: biochemical. The settings on record: LC-MS/MS method (range without asterisk). On the procedure: Full-length human CGT cDNA was cloned into the BamH1/Xho1 site of pcDNA3.1 (+) mammalian expression vector (V90-20, Invitrogen, Carlsbad, Calif.) and the plasmid was transfected into Chinese hamster ovary (CHO) cells. Lysate was prepared using M-PER (Mammalian Protein Extraction Reagent, ThermoFisher Scientific, Grand Island, N.Y.) in the presence of a protease inhibitor cocktail (P8340, Sigma, Saint Louis, Mo.). Each 100 mm dish (100% confluent, approximately 1×10^7 cells) was lysed with 250 μL of M-PER containing protease inhibitors. Protein concentration was determined using a Pierce BCA protein assay kit (ThermoFisher Scientific). Four micrograms of CHO/CGT lysate was incubated with various concentrations of a compound (0.001 μM-50 μM) in 10 mM HEPES (pH 7.2) containing 35 μM dioleoylphosphatidylcholine, 5 mM MgCl2, 5 mM MnCl2, 1% BSA, 15 mM KCl, 1 mM EGTA, 8 mM CHAPS, 10 μM C6-NBD-dihydro-ceramide and 17.5 μM UDP-galactose in a final reaction volume of 20 μL at 37° C. for 1 hour. The final concentration of DMSO was 0.5% in both compound-treated and mock-treated samples. Tween 80 (0.01%) was optionally added to the reaction mixture to help solubilize the compounds. Each individual reaction was diluted with 80 μL of methanol:acetronitrile (1:3) containing 5 μM N-docdecanoyl-NBD-galactosylceramide (internal standard) to stop the reaction. 200 μL H2O:acetonitile (1:1) was added to precipitate the protein. After sufficient mixing, the plates were centrifuged at 2469 g for 38 minutes, 200 μL of supernatant was transferred to a LC/MS 96-deep well plate and a second spin was performed at 2469 g for 10 minutes. The final supernatant was injected in triplicate for RapidFire/MS/MS analysis.
An alternative LC-MS/MS based method was also used. For the LC-MS/MS readout, the CGT assay was identical to the one described above except for the following: […] was used as the CGT enzyme source, C12:0 (2R—OH) ceramide was used as the ceramide substrate and 0.3 μM Cl2 ceramide was used as the internal standard. Tween 80 was not present in the reaction mixture. The final supernatant was injected for LC-MS/MS analysis.
Quantitative analysis using the LC-MS/MS method: The quantitative analysis of C12:0 (2R—OH) ceramide and C12:0 (2R—OH) galactosylceramide by LC-MS/MS was performed on a Shimadzu ultra-fast liquid chromatography (Shimadzu, Japan) coupled with API 4000 mass spectrometer (Applied Biosystems, Concord, Ontario, Canada). Analyst 1.5 software packages (Applied Biosystems) were used to control the LC-MS/MS system, as well as for data acquisition and processing. 10 μL of sample was loaded onto a Luna C18 column (50 mm×2.0 mm, I.D. 3 μm, 100A) (Phenomenex, USA) for chromatographic separation. Mobile phase A consisted of HPLC grade water with 0.1% formic acid (v/v) and mobile phase B consisted of acetonitrile supplemented with 0.1% formic acid (v/v). The separation was achieved using the following gradient program at a flow rate of 0.8 mL/min: the initial mobile phase was 70% B, which was increased in a linear fashion to 95% B in 1.50 min, and then maintained at 95% B until 3.50 min. The mobile phase was then reset to 70% B within 0.01 min, and maintained until 4.50 min. The total run time was 4.50 min. The MS/MS detection was performed in ESI positive mode. The mass transition selected for quantification was m/z 498.5-264.3 for C12:0 (2R—OH) ceramide under the collision energy of 38.8 V, and the mass transition of C12:0 (2R—OH) galactosylceramide was m/z 660.6-264.5 under the collision energy of 51 V. The mass transition of Cl2 ceramide which was used as internal standard was m/z 482.4-264.3 under the collision energy of 33V. Compound IC50 values were calculated using a protocol identical to the one described for the RapidFire method (see Table 1, where data ranges without an asterix correspond to analysis using the LC-MS/MS method).
Using the above CGT enzyme and CGT cellular assays, the compounds of Table 1 were tested. […]

Each structure is given as a SMILES string. Structures can show the parent of a compound that is named as a salt.

Consider `CC(C)COc1ccc2cc(S(=O)(=O)N[C@@H](C(=O)N3C4CCC3CC(N)C4)C(F)(F)c3ccc(Br)cc3)ccc2c1` (stereo partly drawn) [Compound 7-2, N-((2S)-3-(3-amino-8-azabicyclo[3.2.1]octan-8-yl)-1-(4-bromophenyl)-1,1-difluoro-3-oxopropan-2-yl)-6-isobutoxynaphthalene-2-sulfonamide], for which the IC50 lay within 30 to 100 µM.
Regarding `CC(C)Oc1ccc2cc(S(=O)(=O)N[C@@H](C(=O)N3C4CCC3CC(N)C4)C(F)(F)c3ccc(Cl)cc3)ccc2c1` (stereo partly drawn) [Compound 8-2, N-((2S)-3-(3-amino-8-azabicyclo[3.2.1]octan-8-yl)-1-(4-chlorophenyl)-1,1-difluoro-3-oxopropan-2-yl)-6-isopropoxynaphthalene-2-sulfonamide trifluoroacetate], the IC50 is 10 to 30 µM.
Consider `CC(C)Oc1ccc2cc(C(=O)C(=O)N[C@H](C(=O)N3C4CCC3CC(N)C4)C(F)(F)c3ccc(Br)cc3)ccc2c1` (stereo partly drawn) [Compound 9-1, N-((2R)-3-(3-amino-8-azabicyclo[3.2.1]octan-8-yl)-1-(4-bromophenyl)-1,1-difluoro-3-oxopropan-2-yl)-2-(6-isopropoxynaphthalen-2-yl)-2-oxoacetamide trifluoroacetate], for which the IC50 was in the range of 10 to 30 µM.
`CC(C)Oc1ccc2cc(C(=O)C(=O)N[C@@H](C(=O)N3C4CCC3CC(N)C4)C(F)(F)c3ccc(Br)cc3)ccc2c1` (stereo partly drawn) [Compound 9-2, N-((2S)-3-(3-amino-8-azabicyclo[3.2.1]octan-8-yl)-1-(4-bromophenyl)-1,1-difluoro-3-oxopropan-2-yl)-2-(6-isopropoxynaphthalen-2-yl)-2-oxoacetamide trifluoroacetate] displayed an IC50 of 30 to 100 µM.
As to `NC1CC2CCC(C1)N2C(=O)[C@@H](NS(=O)(=O)c1ccc2cc(Oc3ccccn3)ccc2c1)C(F)(F)c1ccc(Br)cc1` (stereo partly drawn) [Compound 10-1, N-((2R)-3-(3-amino-8-azabicyclo[3.2.1]octan-8-yl)-1-(4-bromophenyl)-1,1-difluoro-3-oxopropan-2-yl)-6-(pyridin-2-yloxy)naphthalene-2-sulfonamide trifluoroacetate], the IC50 was in the range of 30 to 100 µM.
Turning to `NC1CC2CCC(C1)N2C(=O)[C@@H](NS(=O)(=O)c1ccc(OCc2ccccc2)cc1)C(F)(F)c1ccc(Br)cc1` (stereo partly drawn) [Compound 11-1, N-((2R)-3-(3-amino-8-azabicyclo[3.2.1]octan-8-yl)-1-(4-bromophenyl)-1,1-difluoro-3-oxopropan-2-yl)-4-(benzyloxy)benzenesulfonamide trifluoroacetate], the IC50 lay in the range of 10 to 30 µM.
Compound `NC1CC2CCC(C1)N2C(=O)[C@H](NS(=O)(=O)c1ccc(OCc2ccccc2)cc1)C(F)(F)c1ccc(Br)cc1` (stereo partly drawn) [Compound 11-2, N-((2S)-3-(3-amino-8-azabicyclo[3.2.1]octan-8-yl)-1-(4-bromophenyl)-1,1-difluoro-3-oxopropan-2-yl)-4-(benzyloxy)benzenesulfonamide trifluoroacetate] had an IC50 of 30 to 100 µM.
Consider `NC1CC2CCC(C1)N2C(=O)[C@@H](NS(=O)(=O)c1ccc(OCC2CCCCC2)cc1)C(F)(F)c1ccc(Br)cc1` (stereo partly drawn) [Compound 12-1, N-((2R)-3-(3-amino-8-azabicyclo[3.2.1]octan-8-yl)-1-(4-bromophenyl)-1,1-difluoro-3-oxopropan-2-yl)-4-(cyclohexylmethoxy)benzenesulfonamide trifluoroacetate], for which the IC50 fell in the range of 10 to 30 µM.
The value for `CC[C@@H](C)Oc1ccc2cc(S(=O)(=O)N[C@H](C(=O)N3C4CCC3CC(N)C4)C(F)(F)c3ccc(Br)cc3)ccc2c1` (stereo partly drawn) [Compound 13-1, N-((2R)-3-(3-amino-8-azabicyclo[3.2.1]octan-8-yl)-1-(4-bromophenyl)-1,1-difluoro-3-oxopropan-2-yl)-6-((R)-sec-butoxy)naphthalene-2-sulfonamide] was 1 to 10 µM; that for `CC[C@H](C)Oc1ccc2cc(S(=O)(=O)N[C@@H](C(=O)N3C4CCC3CC(N)C4)C(F)(F)c3ccc(Br)cc3)ccc2c1` (stereo partly drawn) [Compound 13-2, N-((2S)-3-(3-amino-8-azabicyclo[3.2.1]octan-8-yl)-1-(4-bromophenyl)-1,1-difluoro-3-oxopropan-2-yl)-6-((S)-sec-butoxy)naphthalene-2-sulfonamide] was 10 to 30 µM.
With `CC[C@H](C)Oc1ccc2cc(S(=O)(=O)N[C@H](C(=O)N3C4CCC3CC(N)C4)C(F)(F)c3ccc(Br)cc3)ccc2c1` (stereo partly drawn) [Compound 13-3, N-((2R)-3-(3-amino-8-azabicyclo[3.2.1]octan-8-yl)-1-(4-bromophenyl)-1,1-difluoro-3-oxopropan-2-yl)-6-((S)-sec-butoxy)naphthalene-2-sulfonamide] the figure was 1 to 10 µM.
Compound `CC[C@@H](C)Oc1ccc2cc(S(=O)(=O)N[C@@H](C(=O)N3C4CCC3CC(N)C4)C(F)(F)c3ccc(Br)cc3)ccc2c1` (stereo partly drawn) [Compound 13-4, N-((2S)-3-(3-amino-8-azabicyclo[3.2.1]octan-8-yl)-1-(4-bromophenyl)-1,1-difluoro-3-oxopropan-2-yl)-6-((R)-sec-butoxy)naphthalene-2-sulfonamide] registered an IC50 of 10 to 30 µM.
Regarding `NC1CC2CCC(C1)N2C(=O)C(NC(=O)C(=O)c1ccc(-c2ccc(F)cc2)cn1)C(F)(F)c1ccc(Br)cc1` (stereo not drawn) [Compound 14, N-(3-(3-amino-8-azabicyclo[3.2.1]octan-8-yl)-1-(4-bromophenyl)-1,1l-difluoro-3-oxopropan-2-yl)-2-(5-(4-fluorophenyl)pyridin-2-yl)-2-oxoacetamide trifluoroacetate], the IC50 was in the range of 30 to 100 µM.
Compound `NC1CC2CCC(C1)N2C(=O)[C@@H](NS(=O)(=O)c1ccc(OCc2ccc(Cl)cc2)cc1)C(F)(F)c1ccc(Br)cc1` (stereo partly drawn) [Compound 15-1, N-((2R)-3-(3-amino-8-azabicyclo[3.2.1]octan-8-yl)-1-(4-bromophenyl)-1,1-difluoro-3-oxopropan-2-yl)-4-((4-chlorobenzyl)oxy)benzenesulfonamide trifluoroacetate] yielded an IC50 of 1 to 10 µM.
With `NC1CC2CCC(C1)N2C(=O)[C@H](NS(=O)(=O)c1ccc(OCc2ccc(Cl)cc2)cc1)C(F)(F)c1ccc(Br)cc1` (stereo partly drawn) [Compound 15-2, N-((2S)-3-(3-amino-8-azabicyclo[3.2.1]octan-8-yl)-1-(4-bromophenyl)-1,1-difluoro-3-oxopropan-2-yl)-4-((4-chlorobenzyl)oxy) benzenesulfonamide trifluoroacetate] the figure was 30 to 100 µM.

What is called IC50 is the concentration that inhibits the measured activity by half. Higher therefore signals weaker potency in that assay.

These data come from patent US20190322676A1, “CERAMIDE GALACTOSYLTRANSFERASE INHIBITORS FOR THE TREATMENT OF DISEASE” (BioMarin Pharmaceutical Inc., priority 2016, published 2019).
